Reference: ChEMBL document CHEMBL4354803, “Synthesis and biological activity of structurally diverse phthalazine derivatives: A systematic review” (Bioorg Med Chem, 2019)

System: Mus musculus
Experiment: Anticonvulsant activity in ip dosed Kunming mouse assessed as protection against 50 mA current-induced seizure measured after 0.5 hrs by maximal electroshock seizure test
Format: functional

FC(F)(F)c1cccc(COc2nn3cnnc3c3ccccc23)c1
ED50: 9.3 mg/kg
